Test results taken from article PMC11008251, “Distribution of 2,2′,5,5′-Tetrachlorobiphenyl (PCB52) Metabolites in Adolescent Rats after Acute Nose-Only Inhalation Exposure” (Environmental Science & Technology, 2024).
Where two headings read alike, the source gives them in different places.

Columns and labels:
[1] = Body and organ weights after PCB52 nose-only inhalation; assay type: in vivo, Sprague–Dawley rats; settings: for Relative Organ Weights, Brain / Relative Organ Weights, Kidneys / Relative Organ Weights, Liver / Relative Organ Weights, Lung / Relative Organ Weights, Ovaries / Relative Organ Weights, Spleen / Relative Organ Weights, Thymus / Relative Organ Weights, Testies: mean (standard deviation); for Adrenal Glands weight / Body Weight Post Exposure / Kidneys weight / Liver weight / Lung weight / Reproductive organ weight / Spleen weight / Thymus weight: n=6
Method: (§1) The Institutional Animal Care and Use Committee of the University of Iowa approved all of the animal protocols. Animals were housed in a temperature- and humidity-controlled room (21 °C, 55% relative humidity) with a 12 h light/dark cycle in an Association for the Assessment and Accreditation of Laboratory Animal Care (AAALAC) accredited animal facility. Animals were provided with food (sterile Teklad 5% stock diet, Harlan, Madison, WI) and water ad libitum throughout the study. Thirty-six male and female Sprague–Dawley rats (7 weeks of age; Charles River, Wilmington, MA) were allowed to acclimate to the animal facility for 8 days after arrival. Prior to exposure, rats (227 ± 27 and 197 ± 13 g, male and female, respectively) were randomly assigned to the exposure groups (n = 6 per group) using a random number generated (Excel, version 2307). Animals were simultaneously exposed for 4 h to a low or high concentration of PCB52-laden per sex) or filtered lab air (Figure 1A). Exposure duration was limited to 4 h along with scheduled training days (30 min at 55 days of age and 2 h at 56 days of age) to acclimate animals and minimize stress. […] Animal exposure occurred for 4 h at 57 days of age. Rats are considered adolescents at this age.[38] Serum was collected immediately after the animals were removed from the nose-only apparatus by cardiac puncture under isoflurane anesthesia. Rats were perfused with saline, and organs were excised and stored at −80 °C. Body and organ weights, including brain, lungs, and thymus, were not altered by PCB52 inhalation regardless of sex or exposure (Tables S2 and S3).

[2] = PCB52 and monohydroxylated metabolite tissue levels by GC-MS/MS after 4 h nose-only inhalation; assay type: in vivo, Sprague–Dawley rats; settings: for concentration at 4 h: Sprague-Dawley, rat, inhaled, mean
Method: PCB52 vapor for the animal exposure was generated using a published protocol.[12] Briefly, 450 g of 3 mm diameter glass beads were added to a solution of 1.5 g of PCB52 in dichloromethane. The glass beads were then coated with PCB52 by evaporating dichloromethane in a water bath at 29 °C using a rotary evaporator (Buchi Rotavapor R-200, New Castle, DE) under reduced pressure. For the animal exposures, high-efficiency particulate air (HEPA)-filtered laboratory air was passed through the PCB52-coated glass beads at a flow rate of 12 L/min to expose animals to PCB52 vapor in a nose-only exposure apparatus (Figure 1A). The flask of PCB52-coated beads and mixing chamber were kept at 25.0 °C using a precision water bath to facilitate the volatilization of PCB52. The PCB52-laden air was passed through a mixing chamber and distributed to the nose-only inhalation apparatus at a flow rate of 4 L/min per tower (n = 3) and a sampling cartridge filled with 10 g of Amberlite XAD-2 polymeric absorbent resin (Sigma-Aldrich, St. Louis, MO) at a flow rate of 2 L/min. The specified flow rates were generated using flow meter-regulated pumps. The XAD-2 cartridge was used to capture PCB52 vapor to characterize the exposure atmosphere. A sham exposure group was exposed in parallel to HEPA-filtered clean air in an identical nose-only exposure system in an adjacent lab with no supplied PCB52.
as §1
PCB52 and its hydroxylated metabolites were extracted from tissues, serum, and cecum and intestinal content using a published protocol;[40],[41] see the Supporting Information. Briefly, PCB52 and its metabolites were extracted from homogenates by liquid–liquid extraction and cleaned by solid-phase extraction with acidified silica gel. PCB52 and metabolites were quantified in the multiple reaction monitoring setting (MRM) on an Agilent 7890 A GC system equipped with an Agilent 7000 Triple Quad and Agilent 7693 autosampler (Agilent Technologies, Santa Clara, CA); see the Supporting Information.
PCB52 and metabolite levels, adjusted for tissue wet weight, are reported as the mean ± standard deviation. Differences in PCB52 and metabolite levels from the GC-MS/MS analysis were analyzed with the Tobit regression model because some measurements are below the detection limit. […]

With `Clc1ccc(Cl)c(-c2cc(Cl)ccc2Cl)c1` [PCB52, 2,2′,5,5′-tetrachlorobiphenyl] the “Relative Organ Weights, Brain” value ([1]; Females, High) was 0.010 (0.001) g/g BW, the “Relative Organ Weights, Kidneys” value ([1]; Females, High) was 0.009 (0.001) g/g BW and the “Relative Organ Weights, Liver” value ([1]; Females, High) was 0.042 (0.003) g/g BW. For the same compound, the “Relative Organ Weights, Lung” value ([1]; Females, High) was 0.006 (0.001) g/g BW, the “Relative Organ Weights, Ovaries” value ([1]; Females, High) was 0.003 (0.001) g/g BW and the “Relative Organ Weights, Spleen” value ([1]; Females, High) was 0.002 (0.001) g/g BW. For the same compound, the “Relative Organ Weights, Thymus” value ([1]; Females, High) was 0.003 (0.001) g/g BW, the “Relative Organ Weights, Brain” value ([1]; Females, Low) was 0.010 (0.001) g/g BW and the “Relative Organ Weights, Kidneys” value ([1]; Females, Low) was 0.009 (0.001) g/g BW. For the same compound, the “Relative Organ Weights, Liver” value ([1]; Females, Low) was 0.044 (0.002) g/g BW, the “Relative Organ Weights, Lung” value ([1]; Females, Low) was 0.007 (0.001) g/g BW and the “Relative Organ Weights, Ovaries” value ([1]; Females, Low) was 0.003 (0.001) g/g BW. For the same compound, the “Relative Organ Weights, Spleen” value ([1]; Females, Low) was 0.003 (0.001) g/g BW, the “Relative Organ Weights, Thymus” value ([1]; Females, Low) was 0.003 (0.001) g/g BW and the “Adrenal Glands weight” value ([1]; High exposure group, female) was 0.06 grams. The “Body Weight Post Exposure” value ([1]; High exposure group, female) was 196.92 ± 9.39 grams, the Kidneys weight ([1]; High exposure group, female) was 1.85 grams and the Liver weight ([1]; High exposure group, female) was 8.29 grams. For the same compound, the Lung weight ([1]; High exposure group, female) was 1.23 grams, the Reproductive organ weight ([1]; High exposure group, female) was 0.59 ± 0.16 grams and the Spleen weight ([1]; High exposure group, female) was 0.44 grams. The Thymus weight ([1]; High exposure group, female) was 0.58 ± 0.06 grams, the “Adrenal Glands weight” value ([1]; High exposure group, male) was 0.03 grams and the “Body Weight Post Exposure” value ([1]; High exposure group, male) was 192.17 ± 22.01 grams. For the same compound, the Kidneys weight ([1]; High exposure group, male) was 1.73 grams, the Liver weight ([1]; High exposure group, male) was 9.28 grams and the Lung weight ([1]; High exposure group, male) was 1.52 grams. The Reproductive organ weight ([1]; High exposure group, male) was 1.82 ± 0.52 grams, the Spleen weight ([1]; High exposure group, male) was 0.53 grams and the Thymus weight ([1]; High exposure group, male) was 0.56 ± 0.05 grams. For the same compound, the “Adrenal Glands weight” value ([1]; Low exposure group, female) was 0.04 grams, the “Body Weight Post Exposure” value ([1]; Low exposure group, female) was 183.46 ± 14.31 grams and the Kidneys weight ([1]; Low exposure group, female) was 1.70 grams. The Liver weight ([1]; Low exposure group, female) was 8.11 grams, the Lung weight ([1]; Low exposure group, female) was 1.24 grams and the Reproductive organ weight ([1]; Low exposure group, female) was 0.55 ± 0.10 grams. For the same compound, the Spleen weight ([1]; Low exposure group, female) was 0.47 grams, the Thymus weight ([1]; Low exposure group, female) was 0.61 ± 0.12 grams and the “Adrenal Glands weight” value ([1]; Low exposure group, male) was 0.04 grams. For the same compound, the “Body Weight Post Exposure” value ([1]; Low exposure group, male) was 228.20 ± 14.09 grams, the Kidneys weight ([1]; Low exposure group, male) was 1.99 grams and the Liver weight ([1]; Low exposure group, male) was 10.31 grams. It also gave a Lung weight ([1]; Low exposure group, male) of 1.48 grams, a Reproductive organ weight ([1]; Low exposure group, male) of 2.51 ± 0.14 grams and a Spleen weight ([1]; Low exposure group, male) of 0.59 grams. For the same compound, the Thymus weight ([1]; Low exposure group, male) was 0.70 ± 0.15 grams, the “Relative Organ Weights, Brain” value ([1]; Males, High) was 0.010 (0.001) g/g BW and the “Relative Organ Weights, Kidneys” value ([1]; Males, High) was 0.009 (0.001) g/g BW. For the same compound, the “Relative Organ Weights, Liver” value ([1]; Males, High) was 0.048 (0.003) g/g BW, the “Relative Organ Weights, Lung” value ([1]; Males, High) was 0.008 (0.002) g/g BW and the “Relative Organ Weights, Spleen” value ([1]; Males, High) was 0.003 (0.001) g/g BW. The “Relative Organ Weights, Testies” value ([1]; Males, High) was 0.009 (0.002) g/g BW, the “Relative Organ Weights, Thymus” value ([1]; Males, High) was 0.003 (0.001) g/g BW and the “Relative Organ Weights, Brain” value ([1]; Males, Low) was 0.008 (0.001) g/g BW. The “Relative Organ Weights, Kidneys” value ([1]; Males, Low) was 0.009 (0.001) g/g BW, the “Relative Organ Weights, Liver” value ([1]; Males, Low) was 0.045 (0.002) g/g BW and the “Relative Organ Weights, Lung” value ([1]; Males, Low) was 0.007 (0.002) g/g BW. For the same compound, the “Relative Organ Weights, Spleen” value ([1]; Males, Low) was 0.003 (0.001) g/g BW, the “Relative Organ Weights, Testies” value ([1]; Males, Low) was 0.011 (0.001) g/g BW and the “Relative Organ Weights, Thymus” value ([1]; Males, Low) was 0.003 (0.001) g/g BW. The “Body and organ weights, including brain, lungs, and thymus” value ([1]; regardless of sex or exposure) was “not altered”, the concentration at 4 h ([2]; female, adipose, female, high dose, read-out: PCB or metabolite detected level, Adipose) was 6 ng/g and the concentration at 4 h ([2]; female, adipose, female, low dose, read-out: PCB or metabolite detected level, Adipose) was 6 ng/g. It also gave a concentration at 4 h ([2]; female, brain, female, high dose, read-out: PCB or metabolite detected level, Brain) of 2 ng/g, a concentration at 4 h ([2]; female, brain, female, low dose, read-out: PCB or metabolite detected level, Brain) of 2 ng/g and a concentration at 4 h ([2]; female, cecum, female, high dose, read-out: PCB or metabolite detected level, Cecum) of 1 ng/g. For the same compound, the concentration at 4 h ([2]; female, cecum, female, low dose, read-out: PCB or metabolite detected level, Cecum) was 1 ng/g, the concentration at 4 h ([2]; female, intestinal content, female, high dose, read-out: PCB or metabolite detected level, Intestinal content) was 2 ng/g and the concentration at 4 h ([2]; female, intestinal content, female, low dose, read-out: PCB or metabolite detected level, Intestinal content) was 5 ng/g. The concentration at 4 h ([2]; female, liver, female, high dose, read-out: PCB or metabolite detected level, Liver) was 7 ng/g, the concentration at 4 h ([2]; female, liver, female, low dose, read-out: PCB or metabolite detected level, Liver) was 7 ng/g and the concentration at 4 h ([2]; female, lung, female, high dose, read-out: PCB or metabolite detected level, Lung) was 45 ng/g. For the same compound, the concentration at 4 h ([2]; female, lung, female, low dose, read-out: PCB or metabolite detected level, Lung) was 41 ng/g, the concentration at 4 h ([2]; female, serum, female, high dose, read-out: PCB or metabolite detected level, Serum) was 1 ng/g and the concentration at 4 h ([2]; female, serum, female, low dose, read-out: PCB or metabolite detected level, Serum) was 1 ng/g. The “general trend of decreasing tissue concentration” value ([2]; irrespective of sex or dose, GC-MS/MS) was “lung > liver > adipose > brain ≈ intestinal content ≈ cecum ≈ serum”, the concentration at 4 h ([2]; male, adipose, male, high dose, read-out: PCB or metabolite detected level, Adipose) was 8 ng/g and the concentration at 4 h ([2]; male, adipose, male, low dose, read-out: PCB or metabolite detected level, Adipose) was 6 ng/g. The concentration at 4 h ([2]; male, brain, male, high dose, read-out: PCB or metabolite detected level, Brain) was 2 ng/g, the concentration at 4 h ([2]; male, brain, male, low dose, read-out: PCB or metabolite detected level, Brain) was 1 ng/g and the concentration at 4 h ([2]; male, cecum, male, high dose, read-out: PCB or metabolite detected level, Cecum) was 2 ng/g. It also gave a concentration at 4 h ([2]; male, cecum, male, low dose, read-out: PCB or metabolite detected level, Cecum) of 1 ng/g, a concentration at 4 h ([2]; male, intestinal content, male, high dose, read-out: PCB or metabolite detected level, Intestinal content) of 1 ng/g and a concentration at 4 h ([2]; male, intestinal content, male, low dose, read-out: PCB or metabolite detected level, Intestinal content) of 1 ng/g. It also gave a concentration at 4 h ([2]; male, liver, male, high dose, read-out: PCB or metabolite detected level, Liver) of 10 ng/g, a concentration at 4 h ([2]; male, liver, male, low dose, read-out: PCB or metabolite detected level, Liver) of 9 ng/g and a concentration at 4 h ([2]; male, lung, male, high dose, read-out: PCB or metabolite detected level, Lung) of 46 ng/g. For the same compound, the concentration at 4 h ([2]; male, lung, male, low dose, read-out: PCB or metabolite detected level, Lung) was 50 ng/g, the concentration at 4 h ([2]; male, serum, male, high dose, read-out: PCB or metabolite detected level, Serum) was 2 ng/g and the concentration at 4 h ([2]; male, serum, male, low dose, read-out: PCB or metabolite detected level, Serum) was 2 ng/g.
